Our source for the IC50 values is patent publication US20090099195A1 (ASTRAZENECA AB, priority 2007, published 2009).

Structures are written as SMILES. A value given as a limit tells only on which side of the number the result lay.

This experiment deals with T1, hP2X3 (human Purinergic P2X receptors subtype 3), clone A (Homo sapiens, UniProt P56373).
T1 sequence (P56373 1-397): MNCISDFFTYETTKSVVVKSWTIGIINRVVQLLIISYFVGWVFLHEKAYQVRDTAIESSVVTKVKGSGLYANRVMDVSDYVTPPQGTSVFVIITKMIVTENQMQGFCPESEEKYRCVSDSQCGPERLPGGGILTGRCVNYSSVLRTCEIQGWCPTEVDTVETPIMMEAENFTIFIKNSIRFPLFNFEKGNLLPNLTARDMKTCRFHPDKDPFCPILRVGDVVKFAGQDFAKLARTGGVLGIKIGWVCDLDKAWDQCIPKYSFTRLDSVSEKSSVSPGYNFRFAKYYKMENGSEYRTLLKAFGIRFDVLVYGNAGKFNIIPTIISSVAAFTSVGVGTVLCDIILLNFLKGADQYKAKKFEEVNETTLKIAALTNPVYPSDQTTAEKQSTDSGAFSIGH
The experiment in a line: hP2X3 FLIPR calcium (Fluo-4) antagonist assay, clone A. As to conditions: Human P2X3 FLIPR Clone A Mean IC50 (nM), RLE cells expressing hP2X3 clone A (AB016608); agonist 500 nM α,β-methylene-ATP.
Method: The assay used a calcium indicator dye (Fluo-4) that emits fluorescence, the intensity of which is related to the concentration of calcium that entered the cell when P2X3 was activated and the channel opened. Activation of hP2X3 or rat P2X3 and rat P2X2/3 (from the coexpression of rat P2X3 and rat P2×2) is elicited the by P2X3 agonist α,β methylene-ATP (Sigma M6517), and the resulting fluorescence is measured with a FLIPR II™ instrument (Molecular Devices). Compounds are tested for their ability to inhibit the agonist-induced fluorescent signal.
For the rat P2X2/3 HEK-TREX cells, induction of the rat P2X3 expression is used to generate the rat P2X2/3 channels in HEK-TREX cells and performed by addition of 1 μg/mL tetracycline (Invitrogen) 24 h prior to compounds testing to the HEK-TREX expressing the rat P2X2 constitutively. On the day of the experiment, the cells and test compounds are prepared as follows. […] After preparing the compounds, the medium is removed from the cell plates by inversion. A loading solution of 30 μL assay buffer containing 4 μM of the calcium indicator dye FLUO-4 AM (Molecular Probes F14202) is added to each well using a Multidrop (Labsystems). […] The incubation is terminated by washing the cells four times in assay buffer using a Skatron Embla (Molecular Devices), and 25 μL of assay buffer was left in each well. Cell plates are then transferred to the FLIPR. Experiments are initiated by measuring a baseline fluorescence reading for 10 seconds, followed by the addition of 12.5 μL of cpds and data sampling for a total 280 seconds. The experiments are terminated by addition of 12.5 μL of a reference agonist (500 nM α,β-methylene-ATP) or buffer, producing a final assay volume of 50 μL followed by data sampling for an additional 280 seconds.
In P2X3 antagonist experiments (human and rat assays) data are analysed as normalised maximal peak fluorescence monitored following agonist addition and calculated as percent of relative fluorescent counts from control agonist. The dose-response antagonist inhibition curves are analyzed in a 4-parameter sigmoidal fit using a non-linear curve-fitting program (XLfit version 5.0.6, ID Business Solutions Limited, Guildford, UK).
In the case of `CC(=O)N1CCN(c2nc(N[C@H](C)c3ccc(OCC4CC4)c(F)c3)c3c(n2)C(=O)N(C(C)C)C3)CC1` [Example 322, (R)-2-(4-acetylpiperazin-1-yl)-4-(1-(4-(cyclopropylmethoxy)-3-fluorophenyl)ethylamino)-6-isopropyl-5H-pyrrolo[3,4-d]pyrimidin-7(6H)-one], the IC50 (in general, the midpoint of a concentration-inhibition curve) was 1900 nM.

Take `CC(=O)N1CCN(c2nc(NCc3ccc4c(c3)CC(C)O4)c3c(n2)C(=O)N(C(C)C)C3)CC1` (stereo not drawn) [Example 323, 2-(4-acetylpiperazin-1-yl)-6-isopropyl-4-((2-methyl-2,3-dihydrobenzofuran-5-yl)methylamino)-5H-pyrrolo[3,4-d]pyrimidin-7(6H)-one]: the IC50 is 410 nM. Under `CC(=O)N1CCN(c2nc(NC(C)c3ccc4c(c3)CC(C)O4)c3c(n2)C(=O)N(C(C)C)C3)CC1` (stereo not drawn) [Example 324, 2-(4-acetylpiperazin-1-yl)-6-isopropyl-4-(1-(2-methyl-2,3-dihydrobenzofuran-5-yl)ethylamino)-5H-pyrrolo[3,4-d]pyrimidin-7(6H)-one] stands 179 nM; under `CCOc1ncc([C@@H](C)Nc2nc(N3CCN(C(C)=O)CC3)nc3c2CN(C(C)C)C3=O)cc1C` [Example 331, (R)-2-(4-acetylpiperazin-1-yl)-4-(1-(6-ethoxy-5-methylpyridin-3-yl)ethylamino)-6-isopropyl-5H-pyrrolo[3,4-d]pyrimidin-7(6H)-one], 195 nM. Under `CC(=O)N1CCN(c2nc(N[C@H](C)c3ccc(CO)cc3)c3c(n2)C(=O)N(C(C)C)C3)CC1` [Example 332, (R)-2-(4-acetylpiperazin-1-yl)-4-(1-(4-(hydroxymethyl)phenyl)ethylamino)-6-isopropyl-5H-pyrrolo[3,4-d]pyrimidin-7(6H)-one] stands greater than 30000 nM; under `CCOc1ccc(CN(C)c2nc(N3CCN(C(C)=O)CC3)nc3c2CN(C(C)C)C3=O)c(OC)c1` [Example 334, 2-(4-acetylpiperazin-1-yl)-4-((4-ethoxy-2-methoxybenzyl)(methyl)amino)-6-isopropyl-5H-pyrrolo[3,4-d]pyrimidin-7(6H)-one], 2970 nM; under `CCOc1ccc(CNc2nc(N3CCN(C(C)=O)CC3)nc3c2CN(C(C)C)C3=O)c(OC)c1` [Example 335, 2-(4-acetylpiperazin-1-yl)-4-(4-ethoxy-2-methoxybenzylamino)-6-isopropyl-5H-pyrrolo[3,4-d]pyrimidin-7(6H)-one], 225 nM.

With `CCOc1cc(OC)ccc1CN(C)c1nc(N2CCN(C(C)=O)CC2)nc2c1CN(C(C)C)C2=O` [Example 336, 2-(4-acetylpiperazin-1-yl)-4-((2-ethoxy-4-methoxybenzyl)(methyl)amino)-6-isopropyl-5H-pyrrolo[3,4-d]pyrimidin-7(6H)-one], the IC50 is 1610 nM. Under `COc1cc(OC(C)C)ccc1CNc1nc(N2CCN(C(C)=O)CC2)nc2c1CN(C(C)C)C2=O` [Example 337, 2-(4-acetylpiperazin-1-yl)-4-(4-isopropoxy-2-methoxybenzylamino)-6-isopropyl-5H-pyrrolo[3,4-d]pyrimidin-7(6H)-one] stands 79.5 nM.

Regarding `COCc1ccc([C@@H](C)Nc2nc(N3CCN(C(C)=O)CC3)nc3c2CN(C(C)C)C3=O)cc1F` [Example 338, 2-(4-acetylpiperazin-1-yl)-4-({(1R)-1-[3-fluoro-4-(methoxymethyl)phenyl]ethyl}amino)-6-(1-methylethyl)-5,6-dihydro-7H-pyrrolo[3,4-d]pyrimidin-7-one], the 50% inhibitory concentration (IC50) turned out to be 2640 nM.

For `CC(=O)N1CCN(c2nc3c(c(N(C)Cc4cnn(-c5ccc(F)cc5)c4)n2)CN(C(C)C)C3=O)CC1` [Example 339, 2-(4-acetylpiperazin-1-yl)-4-[{[1-(4-fluorophenyl)-1H-pyrazol-4-yl]methyl}(methyl)amino]-6-(1-methylethyl)-5,6-dihydro-7H-pyrrolo[3,4-d]pyrimidin-7-one], the half-inhibitory concentration (IC50) amounted to 2280 nM.

Turning to `CC(C)N1Cc2c(NC(C)(C)Cc3ccc(F)cc3)nc(N3CCn4ccnc4C3)nc2C1=O` [Example 340, 2-(5,6-dihydroimidazo[1,2-a]pyrazin-7(8H)-yl)-4-{[2-(4-fluorophenyl)-1,1-dimethylethyl]amino}-6-(1-methylethyl)-5,6-dihydro-7H-pyrrolo[3,4-d]pyrimidin-7-one], the half-inhibitory concentration (IC50) was 2710 nM. Next, `CC(=O)N1CCN(c2nc3c(c(N(C)Cc4cc5ccc(Cl)cc5cn4)n2)CN(C(C)C)C3=O)CC1` [Example 341, 2-(4-acetylpiperazin-1-yl)-4-(((7-chloroisoquinolin-3-yl)methyl)(methyl)amino)-6-isopropyl-5H-pyrrolo[3,4-d]pyrimidin-7(6H)-one]: 29.2 nM; `CC(=O)N1CCN(c2nc3c(c(N(C)Cc4cc5cc(C)ccc5cn4)n2)CN(C(C)C)C3=O)CC1` [Example 342, 2-(4-acetylpiperazin-1-yl)-6-isopropyl-4-(methyl((6-methylisoquinolin-3-yl)methyl)amino)-5H-pyrrolo[3,4-d]pyrimidin-7(6H)-one]: 1230 nM; `CC(=O)N1CCN(c2nc3c(c(N(C)Cc4cc5cc(Cl)ccc5cn4)n2)CN(C(C)C)C3=O)CC1` [Example 348, 2-(4-acetylpiperazin-1-yl)-4-(((6-chloroisoquinolin-3-yl)methyl)(methyl)amino)-6-isopropyl-5H-pyrrolo[3,4-d]pyrimidin-7(6H)-one]: 2720 nM.

`CC(=O)N1CCN(c2nc3c(c(N(C)Cc4cc5cc(F)ccc5cn4)n2)CN(C(C)C)C3=O)CC1` [Example 349, 2-(4-acetylpiperazin-1-yl)-4-(((6-fluoroisoquinolin-3-yl)methyl)(methyl)amino)-6-isopropyl-5H-pyrrolo[3,4-d]pyrimidin-7(6H)-one]: the IC50 was 1050 nM. With `CC(=O)N1CCN(c2nc3c(c(N(C)Cc4cc5ccc(F)cc5cn4)n2)CN(C(C)C)C3=O)CC1` [Example 350, 2-(4-acetylpiperazin-1-yl)-4-(((7-fluoroisoquinolin-3-yl)methyl)(methyl)amino)-6-isopropyl-5H-pyrrolo[3,4-d]pyrimidin-7(6H)-one], the IC50 is 29.9 nM. Under `CC(=O)N1CCN(c2nc3c(c(N(C)Cc4cc5ccc(C)cc5cn4)n2)CN(C(C)C)C3=O)CC1` [Example 353, 2-(4-acetylpiperazin-1-yl)-6-isopropyl-4-(methyl((7-methylisoquinolin-3-yl)methyl)amino)-5H-pyrrolo[3,4-d]pyrimidin-7(6H)-one] stands 61.1 nM; under `CC(=O)N1CCN(c2nc(NCc3ccc4c(ccn4C)c3)c3c(n2)C(=O)N(C(C)C)C3)CC1` [Example 354, 2-(4-acetylpiperazin-1-yl)-6-(1-methylethyl)-4-{[(1-methyl-1H-indol-5-yl)methyl]amino}-5,6-dihydro-7H-pyrrolo[3,4-d]pyrimidin-7-one], 494 nM. Under `CC(=O)N1CCN(c2nc3c(c(N(C)Cc4ccc5ccn(C)c5c4)n2)CN(C(C)C)C3=O)CC1` [Example 355, 2-(4-acetylpiperazin-1-yl)-6-(1-methylethyl)-4-{methyl[(1-methyl-1H-indol-6-yl)methyl]amino}-5,6-dihydro-7H-pyrrolo[3,4-d]pyrimidin-7-one] stands 5760 nM. Under `CC(=O)N1CCN(c2nc(NCc3ccc4ccn(C)c4c3)c3c(n2)C(=O)N(C(C)C)C3)CC1` [Example 356, 2-(4-acetylpiperazin-1-yl)-6-(1-methylethyl)-4-{[(1-methyl-1H-indol-6-yl)methyl]amino}-5,6-dihydro-7H-pyrrolo[3,4-d]pyrimidin-7-one] stands 1060 nM; under `CCOc1ccc([C@@H](C)Nc2nc(N3CCN(C(C)=O)CC3)nc3c2CN(C(C)C)C3=O)c(OCC)c1` [Example 357, (R)-2-(4-acetylpiperazin-1-yl)-4-(1-(2,4-diethoxyphenyl)ethylamino)-6-isopropyl-5H-pyrrolo[3,4-d]pyrimidin-7(6H)-one], 163 nM; under `CC(=O)N1CCN(c2nc(N[C@H](C)c3ccc(CN(C)C)cc3)c3c(n2)C(=O)N(C(C)C)C3)CC1` [Example 358, (R)-2-(4-acetylpiperazin-1-yl)-4-(1-(4-((dimethylamino)methyl)phenyl)ethylamino)-6-isopropyl-5H-pyrrolo[3,4-d]pyrimidin-7(6H)-one], greater than 30000 nM. On to `CC(=O)N1CCN(c2nc(N[C@H](C)c3ccc4c(c3)OC(F)(F)O4)c3c(n2)C(=O)N(C(C)C)C3)CC1` [Example 359, (R)-2-(4-acetylpiperazin-1-yl)-4-(1-(2,2-difluorobenzo[d][1,3]dioxol-5-yl)ethylamino)-6-isopropyl-5H-pyrrolo[3,4-d]pyrimidin-7(6H)-one], for which the IC50 worked out at 511 nM. Regarding `CC(=O)N1CCN(c2nc3c(c(N(C)Cc4ccc5c(c4)OC(F)(F)O5)n2)CN(C(C)C)C3=O)CC1` [Example 360, 2-(4-acetylpiperazin-1-yl)-4-(((2,2-difluorobenzo[d][1,3]dioxol-5-yl)methyl)(methyl)amino)-6-isopropyl-5H-pyrrolo[3,4-d]pyrimidin-7(6H)-one], the IC50 is greater than 30000 nM. Under `CCOc1ccc([C@@H](C)Nc2nc(N3CCN(CC)C(=O)C3)nc3c2CN(C(C)C)C3=O)cc1` [Example 361, (R)-4-(1-(4-ethoxyphenyl)ethylamino)-2-(4-ethyl-3-oxopiperazin-1-yl)-6-isopropyl-5H-pyrrolo[3,4-d]pyrimidin-7(6H)-one] stands 327 nM; under `CCN1CCN(c2nc3c(c(N(C)Cc4cc5ccccc5cn4)n2)CN(C(C)C)C3=O)CC1=O` [Example 362, 2-(4-ethyl-3-oxopiperazin-1-yl)-6-isopropyl-4-((isoquinolin-3-ylmethyl)(methyl)amino)-5H-pyrrolo[3,4-d]pyrimidin-7(6H)-one], 356 nM.
